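In this assay, cells in 96-well plates receive the compound at five concentrations for 48 hours. Endpoints are linearly interpolated between the surrounding concentrations. TGI: concentration producing complete growth inhibition.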

Common to all, as to assay: NCI anticancer screen, dose series, 48 h
Assay [1] concerns OVCAR-3 ovarian.
Assay [2] relates to U251 CNS.
Assay [3] has as its system MALME-3M melanoma.
Assay [4] has as its system M14 melanoma.
Assay [5] concerns HOP-62 NSCLC.
Assay [6] concerns SNB-75 CNS.
Assay [7] relates to SK-MEL-28 melanoma.
Assay [8] relates to ACHN renal.
The subject of assay [9] is EKVX NSCLC.
Assay [10] deals with HCT-116 colon.
Assay [11] has as its system SF-268 CNS.
Assay [12] deals with COLO 205 colon.
Assay [13] concerns SF-295 CNS.
For assay [14], the system named is UACC-62 melanoma.
For assay [15], the system named is SNB-19 CNS.
The subject of assay [16] is CAKI-1 renal.
Assay [17] deals with XF 498 CNS.
In assay [18] the test system is UACC-257 melanoma.
Assay [19] relates to OVCAR-5 ovarian.
Assay [20] relates to RXF 393 renal.

Regarding `C=C1C(=O)OC2C[C@H](C)C3CC(=O)C(C)=C3CC12` (stereo partly drawn), the TGI in assay [1] was 26.2 µM; in assay [2], 18.1 µM; in assay [3], 25.3 µM; in assay [4], 27.4 µM; in assay [5] it was over 54.4 µM; in assay [6] it was 32.6 µM. Moreover, the TGI in [7] was 18.7 µM; in assay [8], 25.5 µM; in [9] it was 32.8 µM; in assay [10] it was 20.4 µM; in assay [11], 38.7 µM; in [12] it was 26.5 µM. Also, the TGI was over 62.3 µM in assay [13]; 25.9 µM in [14]; over 100 µM in assay [15]; 18.2 µM in assay [16]; 30.1 µM in assay [17]; 28.6 µM in [18]. Further, the results for the TGI in assay [19] and in [20] were 28.9 µM and 31.6 µM, respectively.

As to `COc1cc(C2c3cc4c(cc3OC3(O)COC(=O)C23)OCO4)cc(OC)c1OC` (stereo not drawn), the TGI was over 100 µM in assay [1]; over 100 µM in assay [2]; over 100 µM in assay [3]; over 100 µM in assay [4]; over 100 µM in [5]; 54.5 µM in assay [6]. The TGI in assay [8] is over 100 µM; in assay [9], over 100 µM; in assay [10] it was over 100 µM; in [11], over 100 µM; in assay [13] it was 74.5 µM; in assay [14] it was over 100 µM. Besides, the TGI in assay [15] was over 100 µM; in assay [16], over 100 µM; in [17], 96.7 µM; in assay [18] it was over 100 µM; in assay [19], over 100 µM; in [20] it was 91.5 µM.

`CN(C)CCSC(=Nc1ccccc1)N1C=COC=C1`: the TGI in assay [1] was over 81.8 µM; in assay [2], over 100 µM; in assay [3], over 81.8 µM; in [4], 36.2 µM; in assay [5], over 100 µM; in assay [6], over 100 µM. Besides, the TGI in assay [7] is 40.4 µM; in assay [8], over 100 µM; in assay [9], over 100 µM; in assay [10], 45 µM; in assay [11], 42.5 µM; in assay [12], over 72.2 µM. In addition, the TGI is over 100 µM in assay [13]; 30.9 µM in assay [14]; over 100 µM in assay [15]; over 100 µM in [16]; 85.3 µM in assay [17]; 33.8 µM in assay [18]. The TGI in [19] was over 100 µM; in [20] it was 72.8 µM.

`O=C1NC2OCC(O)C(O1)C2O` (stereo not drawn): the TGI in assay [1], in assay [2], in [3], in assay [4], in [5] and in assay [6] was over 100 µM each time. Besides, the TGI in [7], in assay [8], in [9], in assay [11], in assay [12] and in assay [13] was over 100 µM each time. Besides, the TGI in assay [14], in [15], in [16], in assay [17], in assay [18] and in [19] was over 100 µM throughout. The TGI in assay [20] is over 100 µM.

For `COc1nc(/C=N/NC(N)=S)nc(OC)n1`, the TGI in [1], in [2], in [3], in [4], in assay [6] and in assay [7] was over 100 µM in each case. The TGI in assay [8], in assay [9], in assay [10], in [11], in assay [12] and in [13] was over 100 µM throughout. Also, the TGI in [14], in assay [15], in assay [16], in [17], in assay [18] and in assay [19] was over 100 µM in each case. The molecule also yielded a TGI in [20] of over 100 µM.

Regarding `Cc1c2ccccc2c(CO)c2cc(F)c3ccccc3c12`, the TGI in [1] is 61.3 µM; in assay [2], 50.3 µM; in assay [3] it was over 100 µM; in [5], 92.9 µM; in assay [6], over 100 µM; in [7], over 100 µM. The TGI in assay [8] is 58.2 µM; in assay [9] it was over 100 µM; in assay [10], 40.3 µM; in [11], 71.2 µM; in assay [12] it was 32.2 µM; in assay [13] it was 57.8 µM. Further, the TGI in assay [14] was over 100 µM; in assay [15], over 100 µM; in [16], 79.4 µM; in [17], 51 µM; in [18], over 100 µM; in [19] it was 80.6 µM. In [20], this molecule returned a TGI of 61.5 µM.

Regarding `Cc1ccc(S(=O)(=O)c2c(N)c3nccn3c3nc4ccccc4nc23)cc1`, the TGI in [1], in assay [2], in assay [3], in assay [4], in assay [5] and in assay [6] was over 100 µM each time. Moreover, the TGI in [7], in assay [8], in assay [9], in assay [10], in [11] and in assay [12] was over 100 µM throughout. In addition, the TGI in assay [14], in [15], in assay [16], in [17], in assay [18] and in [19] was over 100 µM in each case.

The values above are taken from PubChem BioAssay (NCI).
